Laboratory results: patent US12077503B2, “Substituted cyclic amides and their use as herbicides” (FMC CORPORATION, priority 2015, dated 2024)

Experiments:
Format in all cases: in vivo
[1] = test system: barnyardgrass (Echinochloa crus-galli); experiment: Test G Pre-Emergence Protocol; settings: Echinochloa crus-galli, pre-emergence, 312 h, evaluated after 13 days; for pest or weed control at 15.625 g/ha: 15.625 g ai/ha, read-out: Barnyard grass damage rating (100=total damage to plant; 0=no damage to plant); for pest or weed control at 62.5 g/ha: 62.5 g ai/ha, 100=total damage to plant, 0=no damage to plant, read-out: plant damage rating, Barnyardgrass; for pest or weed control at 250 g/ha: 250 g ai/ha, read-out: Barnyardgrass damage rating (100=total damage to plant; 0=no damage to plant)
Method in brief: (§1)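 One day after sowing, pots are treated with a spray of test compound formulated in acetone/water 50:50 plus 0.5% Tween 20, giving 15.625, 62.5 or 250 g/ha. Evaluation on a 0–100 damage scale follows 13 days of glasshouse growth.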

corn (Zea mays) [2] = experiment: Test G Pre-Emergence Protocol; settings: Zea mays, pre-emergence, 312 h, evaluated after 13 days; for plant injury at 15.625 g/ha: 15.625 g ai/ha; for plant injury at 15.625 g/ha / plant injury at 250 g/ha: read-out: Corn damage rating (100=total damage to plant; 0=no damage to plant); for plant injury at 62.5 g/ha: 62.5 g ai/ha, 100=total damage to plant, 0=no damage to plant, read-out: plant damage rating, Corn; for plant injury at 250 g/ha: 250 g ai/ha
Method in brief: as §1

[3] = test system: giant foxtail (Setaria faberi); experiment: Test G Pre-Emergence Protocol; settings: Setaria faberi, pre-emergence, 312 h, evaluated after 13 days; for pest or weed control at 15.625 g/ha: 15.625 g ai/ha; for pest or weed control at 15.625 g/ha / pest or weed control at 250 g/ha: read-out: Foxtail, Giant damage rating (100=total damage to plant; 0=no damage to plant); for pest or weed control at 62.5 g/ha: 62.5 g ai/ha, 100=total damage to plant, 0=no damage to plant, read-out: plant damage rating, Foxtail, Giant; for pest or weed control at 250 g/ha: 250 g ai/ha
Method in brief: as §1

[4] = test system: ivy-leaved morning glory (Ipomoea hederacea); experiment: Test G Pre-Emergence Protocol; settings: Ipomoea, pre-emergence, 312 h, evaluated after 13 days; for pest or weed control at 15.625 g/ha: 15.625 g ai/ha, read-out: Morning-glory, Ivy-leaved damage rating (100=total damage to plant; 0=no damage to plant); for pest or weed control at 62.5 g/ha: 62.5 g ai/ha, 100=total damage to plant, 0=no damage to plant, read-out: plant damage rating, Morningglory, Ivy-leaved; for pest or weed control at 250 g/ha: 250 g ai/ha, read-out: Morningglory, Ivy-leaved damage rating (100=total damage to plant; 0=no damage to plant)
Method in brief: as §1

[5] = test system: redroot pigweed (Amaranthus retroflexus); experiment: Test G Pre-Emergence Protocol; settings: Amaranthus retroflexus, pre-emergence, 312 h, evaluated after 13 days; for pest or weed control at 15.625 g/ha: 15.625 g ai/ha; for pest or weed control at 15.625 g/ha / pest or weed control at 250 g/ha: read-out: Pigweed, Redroot damage rating (100=total damage to plant; 0=no damage to plant); for pest or weed control at 62.5 g/ha: 62.5 g ai/ha, 100=total damage to plant, 0=no damage to plant, read-out: plant damage rating, Pigweed, Redroot; for pest or weed control at 250 g/ha: 250 g ai/ha
Method in brief: as §1

[6] = test system: velvetleaf (Abutilon theophrasti); experiment: Test G Pre-Emergence Protocol; settings: Abutilon theophrasti, pre-emergence, 312 h, evaluated after 13 days; for pest or weed control at 15.625 g/ha: 15.625 g ai/ha; for pest or weed control at 15.625 g/ha / pest or weed control at 250 g/ha: read-out: Velvetleaf damage rating (100=total damage to plant; 0=no damage to plant); for pest or weed control at 62.5 g/ha: 62.5 g ai/ha, 100=total damage to plant, 0=no damage to plant, read-out: plant damage rating, Velvetleaf; for pest or weed control at 250 g/ha: 250 g ai/ha
Method in brief: as §1

[7] = test system: barnyardgrass (Echinochloa crus-galli); experiment: Test G Post-Emergence Protocol; settings: Echinochloa crus-galli, post-emergence, 312 h; for pest or weed control at 15.625 g/ha: 15.625 g ai/ha, evaluated after 13 days (100=total damage to plant; 0=no damage to plant), read-out: Barnyardgrass damage rating; for pest or weed control at 62.5 g/ha: 62.5 g ai/ha, read-out: Barnyardgrass damage rating (100=total damage to plant; 0=no damage to plant); for pest or weed control at 62.5 g/ha / pest or weed control at 250 g/ha: evaluated after 13 days; for pest or weed control at 250 g/ha: 250 g ai/ha, read-out: damage to plant, Barnyardgrass (100=total damage to plant; 0=no damage to plant)
Method in brief: (§2)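 Pot-grown seedlings, 8 days old, raised in a glasshouse at 24/16 °C day/night with 14 h light and 65% humidity, were sprayed post-emergence with test compound in acetone/water (50:50) plus 0.5% Tween 20 at 15.625, 62.5 or 250 g/ha. Damage was scored visually 13 days later on a 0–100 scale (100 = total damage).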

corn (Zea mays) [8] = experiment: Test G Post-Emergence Protocol; settings: Zea mays, post-emergence, 312 h; for plant injury at 15.625 g/ha: 15.625 g ai/ha, evaluated after 13 days (100=total damage to plant; 0=no damage to plant), read-out: Corn damage rating; for plant injury at 62.5 g/ha: 62.5 g ai/ha, read-out: Corn damage rating (100=total damage to plant; 0=no damage to plant); for plant injury at 62.5 g/ha / plant injury at 250 g/ha: evaluated after 13 days; for plant injury at 250 g/ha: 250 g ai/ha, read-out: damage to plant, Corn (100=total damage to plant; 0=no damage to plant)
Method in brief: as §2

[9] = test system: giant foxtail (Setaria faberi); experiment: Test G Post-Emergence Protocol; settings: Setaria faberi, post-emergence, 312 h; for pest or weed control at 15.625 g/ha: 15.625 g ai/ha, evaluated after 13 days (100=total damage to plant; 0=no damage to plant), read-out: Foxtail, Giant damage rating; for pest or weed control at 62.5 g/ha: 62.5 g ai/ha, read-out: Foxtail, Giant damage rating (100=total damage to plant; 0=no damage to plant); for pest or weed control at 62.5 g/ha / pest or weed control at 250 g/ha: evaluated after 13 days; for pest or weed control at 250 g/ha: 250 g ai/ha, read-out: damage to plant, Foxtail, Giant (100=total damage to plant; 0=no damage to plant)
Method in brief: as §2

[10] = test system: ivy-leaved morning glory (Ipomoea hederacea); experiment: Test G Post-Emergence Protocol; settings: Ipomoea, post-emergence, 312 h; for pest or weed control at 15.625 g/ha: 15.625 g ai/ha, evaluated after 13 days (100=total damage to plant; 0=no damage to plant), read-out: Morningglory, Ivy-leaved damage rating; for pest or weed control at 62.5 g/ha: 62.5 g ai/ha, read-out: Morningglory, Ivy-leaved damage rating (100=total damage to plant; 0=no damage to plant); for pest or weed control at 62.5 g/ha / pest or weed control at 250 g/ha: evaluated after 13 days; for pest or weed control at 250 g/ha: 250 g ai/ha, read-out: damage to plant, Morningglory, Ivy-leaved (100=total damage to plant; 0=no damage to plant)
Method in brief: as §2

[11] = test system: redroot pigweed (Amaranthus retroflexus); experiment: Test G Post-Emergence Protocol; settings: Amaranthus retroflexus, post-emergence, 312 h; for pest or weed control at 15.625 g/ha: 15.625 g ai/ha, evaluated after 13 days (100=total damage to plant; 0=no damage to plant), read-out: Pigweed, Redroot damage rating; for pest or weed control at 62.5 g/ha: 62.5 g ai/ha, read-out: Pigweed, Redroot damage rating (100=total damage to plant; 0=no damage to plant); for pest or weed control at 62.5 g/ha / pest or weed control at 250 g/ha: evaluated after 13 days; for pest or weed control at 250 g/ha: 250 g ai/ha, read-out: damage to plant, Pigweed, Redroot (100=total damage to plant; 0=no damage to plant)
Method in brief: as §2

[12] = test system: velvetleaf (Abutilon theophrasti); experiment: Test G Post-Emergence Protocol; settings: Abutilon theophrasti, post-emergence, 312 h; for pest or weed control at 15.625 g/ha: 15.625 g ai/ha, evaluated after 13 days (100=total damage to plant; 0=no damage to plant), read-out: Velvetleaf damage rating; for pest or weed control at 62.5 g/ha: 62.5 g ai/ha, read-out: Velvetleaf damage rating (100=total damage to plant; 0=no damage to plant); for pest or weed control at 62.5 g/ha / pest or weed control at 250 g/ha: evaluated after 13 days; for pest or weed control at 250 g/ha: 250 g ai/ha, read-out: damage to plant, Velvetleaf (100=total damage to plant; 0=no damage to plant)
Method in brief: as §2

| SMILES | pest or weed control at 15.625 g/ha [1] [%] | pest or weed control at 62.5 g/ha [1] [%] | pest or weed control at 250 g/ha [1] [%] | plant injury at 15.625 g/ha (corn (Zea mays) [2]) [%] | plant injury at 62.5 g/ha (corn (Zea mays) [2]) [%] | plant injury at 250 g/ha (corn (Zea mays) [2]) [%] | pest or weed control at 15.625 g/ha [3] [%] | pest or weed control at 62.5 g/ha [3] [%] | pest or weed control at 250 g/ha [3] [%] | pest or weed control at 15.625 g/ha [4] [%] | pest or weed control at 62.5 g/ha [4] [%] | pest or weed control at 250 g/ha [4] [%] | pest or weed control at 15.625 g/ha [5] [%] | pest or weed control at 62.5 g/ha [5] [%] | pest or weed control at 250 g/ha [5] [%] | pest or weed control at 15.625 g/ha [6] [%] | pest or weed control at 62.5 g/ha [6] [%] | pest or weed control at 250 g/ha [6] [%] | pest or weed control at 15.625 g/ha [7] [%] | pest or weed control at 62.5 g/ha [7] [%] | other results |
| --- | --- | --- | --- | --- | --- | --- | --- | --- | --- | --- | --- | --- | --- | --- | --- | --- | --- | --- | --- | --- | --- |
| COc1cncc(NC(=O)[C@@H]2C(=O)N(C)C[C@H]2c2ccc(C(F)(F)F)cc2)n1 (racemic) [Compound 1565] | 0 | 0 | 10 | 0 | 0 | 0 | 0 | 0 | 60 | 0 | 0 | 0 | 0 | 0 | 10 | 0 | 0 | 0 | 0 | 0 | pest or weed control at 250 g/ha [7]: 10%; plant injury at 15.625 g/ha (corn (Zea mays) [8]): 0%; plant injury at 62.5 g/ha (corn (Zea mays) [8]): 0%; plant injury at 250 g/ha (corn (Zea mays) [8]): 10%; pest or weed control at 15.625 g/ha [9]: 0%; pest or weed control at 62.5 g/ha [9]: 0%; pest or weed control at 250 g/ha [9]: 50%; pest or weed control at 15.625 g/ha [10]: 0%; pest or weed control at 62.5 g/ha [10]: 0%; pest or weed control at 250 g/ha [10]: 0%; pest or weed control at 15.625 g/ha [11]: 0%; pest or weed control at 62.5 g/ha [11]: 0%; pest or weed control at 250 g/ha [11]: 0%; pest or weed control at 15.625 g/ha [12]: 0%; pest or weed control at 62.5 g/ha [12]: 0%; pest or weed control at 250 g/ha [12]: 30% |
| CN1C[C@@H](c2ccc(C(F)(F)F)cc2)[C@H](C(=O)Nc2cnnc(Cl)c2Cl)C1=O (racemic) [Compound 1567] | 0 | 0 | 0 | 0 | 0 | 0 | 0 | 0 | 0 | 0 | 0 | 0 | 0 | 0 | 0 | 0 | 0 | 0 | 0 | 0 | pest or weed control at 250 g/ha [7]: 10%; plant injury at 15.625 g/ha (corn (Zea mays) [8]): 0%; plant injury at 62.5 g/ha (corn (Zea mays) [8]): 0%; plant injury at 250 g/ha (corn (Zea mays) [8]): 0%; pest or weed control at 15.625 g/ha [9]: 0%; pest or weed control at 62.5 g/ha [9]: 0%; pest or weed control at 250 g/ha [9]: 0%; pest or weed control at 15.625 g/ha [10]: 0%; pest or weed control at 62.5 g/ha [10]: 0%; pest or weed control at 250 g/ha [10]: 0%; pest or weed control at 15.625 g/ha [11]: 0%; pest or weed control at 62.5 g/ha [11]: 0%; pest or weed control at 250 g/ha [11]: 0%; pest or weed control at 15.625 g/ha [12]: 0%; pest or weed control at 62.5 g/ha [12]: 0%; pest or weed control at 250 g/ha [12]: 0% |
| CN1C[C@@H](c2ccc(C(F)(F)F)cc2)[C@H](C(=O)Nc2ncc(Cl)s2)C1=O (racemic) [Compound 1569] | 0 | 0 | 0 | 0 | 0 | 0 | 0 | 0 | 0 | 0 | 0 | 0 | 0 | 0 | 0 | 0 | 0 | 0 | 0 | 10 | pest or weed control at 250 g/ha [7]: 20%; plant injury at 15.625 g/ha (corn (Zea mays) [8]): 0%; plant injury at 62.5 g/ha (corn (Zea mays) [8]): 0%; plant injury at 250 g/ha (corn (Zea mays) [8]): 0%; pest or weed control at 15.625 g/ha [9]: 0%; pest or weed control at 62.5 g/ha [9]: 0%; pest or weed control at 250 g/ha [9]: 0%; pest or weed control at 15.625 g/ha [10]: 0%; pest or weed control at 62.5 g/ha [10]: 0%; pest or weed control at 250 g/ha [10]: 0%; pest or weed control at 15.625 g/ha [11]: 0%; pest or weed control at 62.5 g/ha [11]: 0%; pest or weed control at 250 g/ha [11]: 0%; pest or weed control at 15.625 g/ha [12]: 0%; pest or weed control at 62.5 g/ha [12]: 0%; pest or weed control at 250 g/ha [12]: 0% |
